GI50 and TGI data for 17 molecules are collected here from PubChem BioAssay (NCI).

“And” between values parts separate entries of the source, which are not always exact repeats. Identical values can stand only once.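 Briefly, cells in 96-well plates were exposed to five compound concentrations for 48 h, and endpoints were estimated by linear interpolation. GI50 is the concentration that inhibits growth by half. At the TGI there is no net growth.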

One experiment has as its system SNB-75 CNS. The experiment can be described thus: NCI-60 cell line screen, 48 h.
As for `N#C/C(=C/N1CCN(C(=O)c2ccco2)C1=S)C(=O)c1ccccc1`, the GI50 is 68.2 µM and the TGI was over 100 µM.
For `Nc1nc(SN=Nc2ccc(S(N)(=O)=O)cc2)c2[nH]cnc2n1` the same measures were 0.354 µM and over 21.7 µM.
For `COCCOc1cnc2ccn([C@H](C)c3nnc4c(F)cc(-c5cnn(C)c5)cn34)c(=O)c2c1` the same measures were 34.9 µM and over 100 µM.
As to `CC(C)CNC(=O)O`, the TGI was over 100 µM.
`CCOC(=O)c1c[nH]c2oc(/C=N/N3CC(CN4CCOCC4)OC3=O)cc2c1=O` (stereo not given): the TGI was over 100 µM.
In the case of `CCC(C)(C)c1ccc(OCCCCCCN2CCNCC2)cc1`, the GI50 is 1.46 µM and the TGI came out at 3.51 µM.
Consider `O=C(Nc1ccc(-n2cc(-c3ccncc3)c(-c3ccc(Cl)c(O)c3)n2)cc1)Nc1ccc(Cl)c(C(F)(F)F)c1`, for which the GI50 is 0.363 µM and the TGI stood at 2.14 µM.
In the case of `COc1ccc(C(=O)COc2cccc(/C=C3\Oc4ccc5ccccc5c4C3=O)c2)cc1`, the GI50 was 12.3 µM and the TGI came to 29 µM.
In turn, `Cc1c(C2=C(Br)C(=O)N(C)C2=O)c(=O)n(C)c(=O)n1C` came in with a TGI of over 100 µM.
Still for that read-out and setting: in the case of `N#CC(=NCCO)C1=C(O)c2ccccc2C1=O` it was over 100 µM.
`NC(CS/C(Cl)=C/Cl)C(=O)O` (stereo not given): the GI50 is over 75.9 µM and the TGI was over 100 µM.
On to `CCn1c(CO)nn(-c2cc(O[C@@H](C)C(F)(F)F)c(C(=O)Nc3c(F)cccc3Cl)cc2F)c1=O`, for which the TGI was over 100 µM.
Still for that read-out and setting: in the case of `CC1CCC(=O)C(C(=O)CC2CC(=O)NC(=O)C2)C1` (stereo not given) it was over 100 µM.
Take `O=C(Nc1ccc(CO)cc1)c1coc2ccccc2c1=O`: the GI50 is over 100 µM and the TGI is over 100 µM.
As to `Cc1cc(N/N=C/c2nc(-c3ccc(Br)cc3)oc2C)c2cc(Br)ccc2n1`, the GI50 is 2.17 µM and the TGI was found to be 6.66 µM.
Take `COc1ccc2c(O)cc3c(c2c1)[C@H](CCl)CN3C(=O)c1cc2cc(NC(=O)CCN3CCOCC3)ccc2[se]1`: the GI50 is under 0.001 µM and the TGI came to 0.00156 µM.
For the molecule `CC(C)N=c1cc2n(-c3ccc(Cl)cc3)c3ccccc3nc-2cc1Nc1ccc(Cl)cc1`, the GI50 is 1.23 µM and the TGI was found to be 15.9 µM.

The subject of the next experiment is NCI-H23 lung. In words: NCI-60 cell line screen, 48 h.
Consider `N#C/C(=C/N1CCN(C(=O)c2ccco2)C1=S)C(=O)c1ccccc1`, for which the GI50 is 15.2 µM and the TGI was 43.5 µM.
Take `Nc1nc(SN=Nc2ccc(S(N)(=O)=O)cc2)c2[nH]cnc2n1`: the GI50 is 0.623 µM and the TGI is over 100 µM.
For `COCCOc1cnc2ccn([C@H](C)c3nnc4c(F)cc(-c5cnn(C)c5)cn34)c(=O)c2c1`, in that order: over 100 µM and over 100 µM.
The molecule `CC(C)CNC(=O)O` showed a TGI of over 100 µM.
`CCOC(=O)c1c[nH]c2oc(/C=N/N3CC(CN4CCOCC4)OC3=O)cc2c1=O` (stereo not given) yielded a TGI of over 100 µM.
Regarding `CCC(C)(C)c1ccc(OCCCCCCN2CCNCC2)cc1`, the GI50 is 2.85 µM and the TGI is 8.36 µM.
For `O=C(Nc1ccc(-n2cc(-c3ccncc3)c(-c3ccc(Cl)c(O)c3)n2)cc1)Nc1ccc(Cl)c(C(F)(F)F)c1`, in that order: 1.67 µM and 3.43 µM.
For `COc1ccc(C(=O)COc2cccc(/C=C3\Oc4ccc5ccccc5c4C3=O)c2)cc1`, in that order: 3.38 µM and 16.8 µM.
Turning to `Cc1c(C2=C(Br)C(=O)N(C)C2=O)c(=O)n(C)c(=O)n1C`, the TGI came to 42.9 µM.
On the same count and under the same terms, in the case of `N#CC(=NCCO)C1=C(O)c2ccccc2C1=O` it was over 100 µM.
`NC(CS/C(Cl)=C/Cl)C(=O)O` (stereo not given): the GI50 is 56.5 µM and the TGI is over 100 µM.
For `CCn1c(CO)nn(-c2cc(O[C@@H](C)C(F)(F)F)c(C(=O)Nc3c(F)cccc3Cl)cc2F)c1=O` the same measures were under 0.0438 µM and over 100 µM.
In the case of `CC1CCC(=O)C(C(=O)CC2CC(=O)NC(=O)C2)C1` (stereo not given), the TGI is over 100 µM.
As for `O=C(Nc1ccc(CO)cc1)c1coc2ccccc2c1=O`, the GI50 is over 100 µM and the TGI is over 100 µM.
In the case of `Cc1cc(N/N=C/c2nc(-c3ccc(Br)cc3)oc2C)c2cc(Br)ccc2n1`, the GI50 is 6.25 µM and the TGI was 22.8 µM.
For `COc1ccc2c(O)cc3c(c2c1)[C@H](CCl)CN3C(=O)c1cc2cc(NC(=O)CCN3CCOCC3)ccc2[se]1` the same measures were under 0.001 µM and 0.00121 µM.

The test system of another experiment is HOP-92 NSCLC. The experiment can be described thus: NCI-60 cell line screen, 48 h.
Consider `N#C/C(=C/N1CCN(C(=O)c2ccco2)C1=S)C(=O)c1ccccc1`, for which the GI50 is 26.9 µM and the TGI was over 100 µM.
For `Nc1nc(SN=Nc2ccc(S(N)(=O)=O)cc2)c2[nH]cnc2n1`, in that order: 0.429 µM and 22.4 µM.
For `COCCOc1cnc2ccn([C@H](C)c3nnc4c(F)cc(-c5cnn(C)c5)cn34)c(=O)c2c1` the same measures were 54.9 µM and over 100 µM.
`CC(C)CNC(=O)O` had a TGI of over 100 µM.
Still for that read-out and setting: the same measure for `CCOC(=O)c1c[nH]c2oc(/C=N/N3CC(CN4CCOCC4)OC3=O)cc2c1=O` (stereo not given): over 100 µM.
Regarding `CCC(C)(C)c1ccc(OCCCCCCN2CCNCC2)cc1`, the GI50 was 1.21 µM and the TGI was determined as 6.82 µM.
As for `O=C(Nc1ccc(-n2cc(-c3ccncc3)c(-c3ccc(Cl)c(O)c3)n2)cc1)Nc1ccc(Cl)c(C(F)(F)F)c1`, the GI50 was 1.57 µM and the TGI stood at 4.21 µM.
For `COc1ccc(C(=O)COc2cccc(/C=C3\Oc4ccc5ccccc5c4C3=O)c2)cc1` the same measures were 0.0932 µM and 25.6 µM.
For `Cc1c(C2=C(Br)C(=O)N(C)C2=O)c(=O)n(C)c(=O)n1C`, the TGI is 34.4 µM.
Take `N#CC(=NCCO)C1=C(O)c2ccccc2C1=O`: the TGI was over 100 µM.
For the molecule `NC(CS/C(Cl)=C/Cl)C(=O)O` (stereo not given), the GI50 is 33.2 µM and the TGI is over 100 µM.
For `CCn1c(CO)nn(-c2cc(O[C@@H](C)C(F)(F)F)c(C(=O)Nc3c(F)cccc3Cl)cc2F)c1=O`, in that order: 17.7 µM and over 100 µM.
The molecule `CC1CCC(=O)C(C(=O)CC2CC(=O)NC(=O)C2)C1` (stereo not given) gave a TGI of over 100 µM.
As to `O=C(Nc1ccc(CO)cc1)c1coc2ccccc2c1=O`, the GI50 was 29.4 µM and the TGI was over 100 µM.
In the case of `Cc1cc(N/N=C/c2nc(-c3ccc(Br)cc3)oc2C)c2cc(Br)ccc2n1`, the GI50 was 2.5 µM and the TGI is 14.4 µM.
For `COc1ccc2c(O)cc3c(c2c1)[C@H](CCl)CN3C(=O)c1cc2cc(NC(=O)CCN3CCOCC3)ccc2[se]1`, in that order: under 0.001 µM and 0.00216 µM.
As to `CC(C)N=c1cc2n(-c3ccc(Cl)cc3)c3ccccc3nc-2cc1Nc1ccc(Cl)cc1`, the GI50 is 0.629 µM and the TGI came to 2.83 µM.

A further experiment deals with PC-3 prostate. The experiment can be described thus: NCI-60 cell line screen, 48 h.
For `N#C/C(=C/N1CCN(C(=O)c2ccco2)C1=S)C(=O)c1ccccc1`, the GI50 was 31.7 µM and the TGI was over 100 µM.
In the case of `Nc1nc(SN=Nc2ccc(S(N)(=O)=O)cc2)c2[nH]cnc2n1`, the GI50 is 1.64 µM and the TGI is over 100 µM.
In the case of `COCCOc1cnc2ccn([C@H](C)c3nnc4c(F)cc(-c5cnn(C)c5)cn34)c(=O)c2c1`, the GI50 is over 100 µM and the TGI was over 100 µM.
As for `CC(C)CNC(=O)O`, the TGI was over 100 µM.
Still for that read-out and setting: in the case of `CCOC(=O)c1c[nH]c2oc(/C=N/N3CC(CN4CCOCC4)OC3=O)cc2c1=O` (stereo not given) it was over 100 µM.
On to `CCC(C)(C)c1ccc(OCCCCCCN2CCNCC2)cc1`, for which the GI50 is 2.6 µM and the TGI was determined as 13.8 µM.
For `O=C(Nc1ccc(-n2cc(-c3ccncc3)c(-c3ccc(Cl)c(O)c3)n2)cc1)Nc1ccc(Cl)c(C(F)(F)F)c1`, in that order: 1.86 µM and 9.63 µM.
Regarding `COc1ccc(C(=O)COc2cccc(/C=C3\Oc4ccc5ccccc5c4C3=O)c2)cc1`, the GI50 was 1.54 µM and the TGI was determined as 3.23 µM.
Molecule `Cc1c(C2=C(Br)C(=O)N(C)C2=O)c(=O)n(C)c(=O)n1C` displayed a TGI of 49.6 µM.
In the case of `N#CC(=NCCO)C1=C(O)c2ccccc2C1=O`, the TGI is over 100 µM.
Take `NC(CS/C(Cl)=C/Cl)C(=O)O` (stereo not given): the GI50 is 34.3 µM and the TGI was over 100 µM.
For `CCn1c(CO)nn(-c2cc(O[C@@H](C)C(F)(F)F)c(C(=O)Nc3c(F)cccc3Cl)cc2F)c1=O`, the GI50 was under 0.01 µM and the TGI was over 100 µM.
In turn, `CC1CCC(=O)C(C(=O)CC2CC(=O)NC(=O)C2)C1` (stereo not given) returned a TGI of over 100 µM.
`O=C(Nc1ccc(CO)cc1)c1coc2ccccc2c1=O`: the GI50 is over 100 µM and the TGI was over 100 µM.
As to `Cc1cc(N/N=C/c2nc(-c3ccc(Br)cc3)oc2C)c2cc(Br)ccc2n1`, the GI50 was 2.68 µM and the TGI stood at 8.75 µM.
As for `COc1ccc2c(O)cc3c(c2c1)[C@H](CCl)CN3C(=O)c1cc2cc(NC(=O)CCN3CCOCC3)ccc2[se]1`, the GI50 is under 0.001 µM and the TGI stood at 0.0699 µM.
Regarding `CC(C)N=c1cc2n(-c3ccc(Cl)cc3)c3ccccc3nc-2cc1Nc1ccc(Cl)cc1`, the GI50 was 0.891 µM and 1.9 µM; the TGI was over 50 µM.

A further experiment relates to DU-145 prostate. In words: NCI-60 cell line screen, 48 h.
`N#C/C(=C/N1CCN(C(=O)c2ccco2)C1=S)C(=O)c1ccccc1`: the GI50 is 5.01 µM and the TGI was over 100 µM.
For `Nc1nc(SN=Nc2ccc(S(N)(=O)=O)cc2)c2[nH]cnc2n1`, in that order: 0.469 µM and over 94.8 µM.
For `COCCOc1cnc2ccn([C@H](C)c3nnc4c(F)cc(-c5cnn(C)c5)cn34)c(=O)c2c1`, the GI50 is over 100 µM and the TGI is over 100 µM.
`CC(C)CNC(=O)O` yielded a TGI of over 100 µM.
`CCOC(=O)c1c[nH]c2oc(/C=N/N3CC(CN4CCOCC4)OC3=O)cc2c1=O` (stereo not given): the TGI was over 100 µM.
`CCC(C)(C)c1ccc(OCCCCCCN2CCNCC2)cc1`: the GI50 was 2.39 µM and the TGI came out at 6.06 µM.
With `O=C(Nc1ccc(-n2cc(-c3ccncc3)c(-c3ccc(Cl)c(O)c3)n2)cc1)Nc1ccc(Cl)c(C(F)(F)F)c1`, the GI50 was 1.84 µM and the TGI worked out at 3.85 µM.
As for `COc1ccc(C(=O)COc2cccc(/C=C3\Oc4ccc5ccccc5c4C3=O)c2)cc1`, the GI50 was 4.19 µM and the TGI turned out to be 16 µM.
`Cc1c(C2=C(Br)C(=O)N(C)C2=O)c(=O)n(C)c(=O)n1C` came in with a TGI of 80.9 µM.
On the same count and under the same terms, in the case of `N#CC(=NCCO)C1=C(O)c2ccccc2C1=O` it was over 100 µM.
With `NC(CS/C(Cl)=C/Cl)C(=O)O` (stereo not given), the GI50 is 16.5 µM and the TGI was over 100 µM.
Regarding `CCn1c(CO)nn(-c2cc(O[C@@H](C)C(F)(F)F)c(C(=O)Nc3c(F)cccc3Cl)cc2F)c1=O`, the GI50 was under 0.0192 µM and the TGI was over 100 µM.
As for `CC1CCC(=O)C(C(=O)CC2CC(=O)NC(=O)C2)C1` (stereo not given), the TGI is over 100 µM.
As to `O=C(Nc1ccc(CO)cc1)c1coc2ccccc2c1=O`, the GI50 is over 100 µM and the TGI is over 100 µM.
In the case of `Cc1cc(N/N=C/c2nc(-c3ccc(Br)cc3)oc2C)c2cc(Br)ccc2n1`, the GI50 is 3.81 µM and the TGI worked out at 13.9 µM.
Take `COc1ccc2c(O)cc3c(c2c1)[C@H](CCl)CN3C(=O)c1cc2cc(NC(=O)CCN3CCOCC3)ccc2[se]1`: the GI50 was under 0.001 µM and the TGI is 0.137 µM.
